{
  "source": "patent US12447198B2",
  "about": "“Peptides and fragments for treating diabetes and associated metabolic diseases” (Betavive Ltd., priority 2021, dated 2025)",
  "key": {"[1]": {"test_system": "C57BL/6 STZ mice", "assay": "Fasting blood glucose in STZ-induced diabetic C57BL/6 mice treated with IGF-2", "type": "in vivo, mouse", "settings": "for fasting glucose levels during the ten-day course of treatment: day 0 and ten more times within ten days", "experimental": "C57BL/6 mice male 8-10 weeks old, housed under conventional conditions and allowed laboratory chow and water ad libitum, were used in the experiments described below in Examples 3-4. Within each experiment, animals were matched by age and weight (20-24 g) and randomly divided into groups to receive different treatments. Diabetes was induced by one or more doses of streptozotocin (STZ).\nBriefly, animals received intraperitoneally (i.p.) 100 mg/kg (b.w.) STZ (Cayman Chemical, Ann Arbor, MI) dissolved in citrate buffer on pH 4.5 (this procedure was repeated if needed). Clinical diabetes was defined by hyperglycemia (blood glucose levels >300 mg/dl in fasted animals). Fasting blood glucose levels were measured three times per week and samples were taken from the tail tip after starvation for 6 hours throughout the experiment.\n(§1) Fasting blood glucose levels (mg/dL) were determined using the Accu-Chek Performa glucometer (Roche Diagnostics, Mannheim, Germany). After approximately two weeks of stable hyperglycemia, C57BL/6 STZ mice received exogenous injections of recombinant human IGF-2 (0.3-12 mg/kg/day injection) intraperitoneally for 5-10 consecutive days. During post-treatment follow-up period and upon termination, mice were tested for: fasting glucose, body weight, glucose tolerance test (IPGTT), serum C-peptide level, serum insulin level, and full blood and histological analysis (CBC, Chemistry, Insulin IHC and H&E)."}, "[2]": {"test_system": "mice", "assay": "Blood glucose concentration kinetics of IGF-2 vs. insulin in a glucose tolerance test", "type": "in vivo, mouse", "settings": "IGF-2 800 μg/kg", "text": "IGF-2 therefore provides an effect that mimics insulin within the body, and that effect is referred to herein as an “insulinomimetic” effect. […] In this example, administering IGF-2 can provide better results than administering insulin with respect to blood glucose levels, even when only a single dose was used. Without being bound by this theory, it is possible that the IGF-2 combines with a number of binding proteins in the blood and its active free form is then released slowly from the complex."}, "[3]": {"test_system": "STZ-treated mice", "assay": "Serum insulin and c-peptide levels four weeks after IGF-2 treatment", "type": "in vivo, mouse", "settings": "four weeks post treatment", "experimental": "as §1\nC-peptide is a biomarker used to assess pancreatic beta cell function and is normally produced in equimolar amounts to endogenous insulin. Leighton et al., A Practical Review of C-Peptide Testing in Diabetes, Diabetes Ther. 2017 June; 8 (3): 475-487."}, "[4]": {"test_system": "db/db mice", "assay": "14 hour fasting blood glucose in db/db mice treated with IGF-2", "type": "in vivo, mouse", "experimental": "db/db mice are bred to have a leptin deficiency, increasing susceptibility of the mice to obesity, insulin resistance, and type 2 diabetes (T2D).\nIn this experiment, one group of db/db mice was injected with 3000 μg/kg/day of IGF-2 for 68 days, a second group of db/db mice was injected with 12000 μg/kg/day of IGF-2 for 66 days, and a third group of db/db mice was injected with saline once a day for 68 days.\nIn one experiment (left panel), one group of db/db mice was injected with a daily dose of 12000 μg/kg of IGF-2 divided in two injections per day for 70 days, while another group of db/db mice was injected with saline. […] In another experiment (right panel), one group of db/db mice was injected with a daily dose of 12000 μg/kg of IGF-2 divided in two injections per day for 35 days, while another group of db/db mice was injected with saline.\nIn one exemplary experiment, db/db mice were treated with a 12,000 μg/kg daily dose for 70 days with 70 days of follow up (during which IGF-2 was not administered). All the treated mice maintained normoglycemia for at least 50 days following treatment. In another exemplary experiment, db/db mice were treated with a 12,000 μg/kg daily dose for 35 days with 35 days of follow up (during which IGF-2 was not administered). All the treated mice maintained normoglycemia for 35 days following treatment."}, "[5]": {"test_system": "NOD mice", "assay": "Incidence of spontaneous autoimmune type 1 diabetes / normoglycemia in NOD mice", "type": "in vivo, mouse", "experimental": "Non-Obese Diabetic (NOD) mice are a polygenic model for spontaneous autoimmune type 1 diabetes (T1D). NOD mice have an elevated risk for development of autoimmune type 1 diabetes. Thus, NOD mice were used to determine whether treatment IGF-2 reduces spontaneous development of type 1 diabetes.\nIn this experiment, one group of NOD mice (right panel) was injected with 3000 μg/kg of IGF-2 on each of 76 consecutive days, and a second group of NOD mice (left panel) was injected with saline. […] More specifically, at the end of the 76 days of treatment, only two of the treated mice had developed high glucose levels.\nFIG. 30A depicts how many NOD mice have developed autoimmune type I diabetes during an initial 66 days of treatment with IGF-2, and at various intervals post-treatment. In this experiment, one group of NOD mice was injected with 3000 μg/kg of IGF-2 on each of 66 consecutive days, and a second group of NOD mice was injected with saline.\nIn one exemplary experiment, NOD mice were treated with a 3000 μg/kg daily doses of IGF-2 for 150 days. ⅘ of the treated mice maintained normoglycemia compared to ¼ of the control mice. In another exemplary experiment, NOD mice were treated with a 3000 μg/kg daily dose of IGF-2 for 75 days with follow-up glucose measurements taken for an additional 90 days (during which IGF-2 was not administered). ⅝ of the treated mice maintained normoglycemia compared to 2/11 of the control mice."}, "[6]": {"test_system": "β-MIN6 cells", "assay": "Cell count (cell proliferation) of β-MIN6 cells", "type": "cell-based, mouse", "settings": "5 nM, 20 nM, 80 nM, 1 week treatment", "text": "β-MIN6 cells serve as an in vitro model of mouse pancreatic islets. β-MIN6 cells were used as an in vitro model to measure the effects of treatment with IGF-2."}, "[7]": {"test_system": "human pancreatic islet cells", "assay": "Insulin secretion of human pancreatic islet cells in response to a glucose pulse", "type": "cell-based", "settings": "50 nM for four days"}, "[8]": {"assay": "Safety/toxicity: pathology of blood samples and tissue samples from thirty organs", "type": "in vivo", "settings": "end of 10 days of treatment, 24 days after termination, and 100 days after termination of 30 days of treatment"}},
  "note": "“Also recorded” adds a separate entry of the source.",
  "data": [
    {"substance": "insulin-like growth factor 2 [IGF-2]", "values": [
      {"measurement": "hypoglycemia", "setting": "[1]; 3000 μg/kg/day, also when the dose was increased to 12,000 μg/kg/day", "result": "Hypoglycemia was never observed"},
      {"measurement": "hypoglycemia", "setting": "[1]; 10:1 ratio of dosages, between 3000 μg and 300 μg", "result": "did not cause hypoglycemia"},
      {"measurement": "fasting glucose levels during and shortly after the course of treatment", "setting": "[1]; IGF-2 300 μg/kg/day, initial dose and ten additional doses over ten days, STZ mice B5, B6, B3, B4", "result": "did not return to a normal range; also recorded: temporary drop in fasting glucose levels from days 10-25"},
      {"measurement": "long-term results on fasting glucose levels", "setting": "[1]; IGF-2 300 μg/kg/day, STZ mice B5, B3, B4", "result": "long-term results were not observed"},
      {"measurement": "fasting glucose levels during the ten-day course of treatment", "setting": "[1]; IGF-2 800 μg/kg/day, STZ mice A8, A6, F3, F4", "result": "returned to a normal range"},
      {"measurement": "blood glucose levels remaining, mice with full or almost full resolution", "setting": "[1]; IGF-2 800 μg/kg/day, half the mice (FIGS. 5A and 5B)", "result": "~200", "unit": "mg/dL"},
      {"measurement": "fasting glucose levels after the course of treatment (long term)", "setting": "[1]; IGF-2 800 μg/kg/day, mice A8 and A6", "result": "remained in the normal range until the end of the experiment; also recorded: remained in the normal range until STZ was provided again"},
      {"measurement": "fasting glucose levels after the ten day course of injections ended", "setting": "[1]; IGF-2 800 μg/kg/day, mice F3 and F4", "result": "around 400"},
      {"measurement": "blood glucose levels remaining, mice with partial improvement", "setting": "[1]; IGF-2 800 μg/kg/day, the remaining mice (FIGS. 6A and 6B)", "result": "~400", "unit": "mg/dL"},
      {"measurement": "fasting glucose levels during the ten-day course of treatment", "setting": "[1]; IGF-2 3000 μg/kg/day, STZ mice C1, C8, C6, F1", "result": "returned to a normal range"},
      {"measurement": "long-term improvements in blood glucose levels", "setting": "[1]; IGF-2 12,000 μg/kg daily on each of 12 consecutive days", "result": "long-term improvements in blood glucose levels were obtained"},
      {"measurement": "long-term improvements in blood glucose levels", "setting": "[1]; IGF-2 12,000 μg/kg daily on only 5 consecutive days", "result": "long-term improvements in blood glucose levels were not obtained"},
      {"measurement": "time to reduce the blood glucose level to a normal range", "setting": "[1]; daily intraperitoneal 3000 μg/kg/day, averaged over four mice", "result": "3 to 5", "unit": "days"},
      {"measurement": "blood glucose level reached (normal range), averaged over four mice", "setting": "[1]; daily intraperitoneal 3000 μg/kg/day, maintained for the remainder of the 10 day window", "result": "100 to 200", "unit": "mg/dL"},
      {"measurement": "time post treatment for which normal blood glucose levels are maintained", "setting": "[1]; four mice, single 10 day course at 3000 μg/kg/day, long term follow up", "result": "at least 300 days"},
      {"measurement": "time at which glucose levels began to rise relative to disappearance of IGF-2 from the blood", "setting": "[2]; compared with FIG. 13", "result": "two hours after the IGF-2 was no longer detectable in the blood"},
      {"measurement": "glucose level after administration", "setting": "[2]; glucose tolerance test in mice, insulin 1 unit per kg", "result": "the glucose level decreased"},
      {"measurement": "time after which the recovery in glucose levels began", "setting": "[2]; single dose, insulin 1 unit per kg", "result": "after six hours"},
      {"measurement": "increase in c-peptide levels", "setting": "[3]; four STZ-treated mice", "result": 12, "unit": "fold"},
      {"measurement": "increase of serum insulin compared to STZ treated control mice", "setting": "[3]; permanently cured mice", "result": 50, "unit": "%"},
      {"measurement": "time following treatment for which all the treated mice maintained normoglycemia", "setting": "[4]; 12,000 μg/kg daily dose for 35 days, 35 days of follow up", "result": 35, "unit": "days"},
      {"measurement": "time following treatment for which all the treated mice maintained normoglycemia", "setting": "[4]; 12,000 μg/kg daily dose for 70 days, 70 days of follow up", "result": "at least 50 days"},
      {"measurement": "14 hour fasting blood glucose levels", "setting": "[4]; FIG. 25 left panel, 12000 μg/kg daily in two injections per day for 70 days", "result": "reduced blood glucose levels (14 hour fasting blood glucose levels) to a normal range"},
      {"measurement": "14 hour fasting blood glucose levels", "setting": "[4]; FIG. 25 right panel, 12000 μg/kg daily in two injections per day for 35 days", "result": "reduced blood glucose levels (14 hour fasting blood glucose levels) to a normal range"},
      {"measurement": "14 hour fasting blood glucose levels", "setting": "[4]; first group of db/db mice (FIG. 23), 3000 μg/kg/day for 68 days", "result": "reduced blood glucose levels (14 hour fasting blood glucose levels) to a normal range"},
      {"measurement": "14 hour fasting blood glucose levels", "setting": "[4]; first group of db/db mice (FIG. 23), 12000 μg/kg/day for 66 days", "result": "reduced blood glucose levels (14 hour fasting blood glucose levels) to a normal range"},
      {"measurement": "14 hour fasting blood glucose levels", "setting": "[4]; second group of db/db mice (FIG. 24), 12,000 μg/kg/day, 68 day treatment period", "result": "reduced blood glucose levels (14 hour fasting blood glucose levels) to a normal range"},
      {"measurement": "fraction of the treated mice that maintained normoglycemia", "setting": "[5]; 3000 μg/kg daily dose for 75 days, follow-up for an additional 90 days, control 2/11", "result": "⅝"},
      {"measurement": "fraction of the treated mice that maintained normoglycemia", "setting": "[5]; 3000 μg/kg daily doses for 150 days, control ¼", "result": "⅘"},
      {"measurement": "incidence of spontaneous autoimmune type 1 diabetes", "setting": "[5]; 3000 μg/kg on each of 66 consecutive days and post-treatment, vs saline control", "result": "significantly reduced"},
      {"measurement": "incidence of spontaneous autoimmune attack", "setting": "[5]; 3000 μg/kg on each of 76 consecutive days vs saline", "result": "reduced dramatically"},
      {"measurement": "number of treated mice that had developed high glucose levels", "setting": "[5]; 3000 μg/kg, at the end of the 76 days of treatment", "result": "two"},
      {"measurement": "cell count (cell proliferation)", "setting": "[6]", "result": "increases cell proliferation in a dose-dependent manner"},
      {"measurement": "increase of insulin secretion in response to a glucose pulse compared to untreated cells", "setting": "[7]", "result": "~50", "unit": "%"},
      {"measurement": "pathologies related to treatment in blood samples and tissue samples from thirty organs", "setting": "[8]", "result": "No pathologies were identified"}
    ]}
  ]
}
